# PMC5446891, “Inhibition of α-Amylases by Condensed and Hydrolysable Tannins: Focus on Kinetics and Hypoglycemic Actions” (Enzyme Research, 2017)
# Tests used:
# [1] = target: T1, porcine pancreatic α-amylase (Sus scrofa, UniProt P00690); parameters: method as in doi:10.1016/j.foodres.2013.12.004, PMID 8944767; conditions: cited from earlier work
# T1 construct: purchased Sigma-Aldrich Co. Type VI-B
# T1 sequence (P00690 16-511): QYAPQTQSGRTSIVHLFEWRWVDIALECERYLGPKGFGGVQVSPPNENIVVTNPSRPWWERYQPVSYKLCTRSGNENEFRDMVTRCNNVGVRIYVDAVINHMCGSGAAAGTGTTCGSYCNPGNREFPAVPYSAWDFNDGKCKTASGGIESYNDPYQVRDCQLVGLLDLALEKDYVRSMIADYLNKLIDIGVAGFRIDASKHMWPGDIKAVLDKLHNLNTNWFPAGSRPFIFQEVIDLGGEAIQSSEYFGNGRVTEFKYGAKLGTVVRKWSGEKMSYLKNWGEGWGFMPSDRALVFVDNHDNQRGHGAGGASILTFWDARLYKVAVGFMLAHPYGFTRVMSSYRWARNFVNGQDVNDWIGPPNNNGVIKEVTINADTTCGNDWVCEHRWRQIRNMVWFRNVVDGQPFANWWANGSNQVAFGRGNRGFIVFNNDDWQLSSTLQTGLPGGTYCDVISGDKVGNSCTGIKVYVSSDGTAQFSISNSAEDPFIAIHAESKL
# [2] = test system: intestinal starch absorption (in vivo α-amylase); assay: glycemic levels of rats after starch administration; parameters: species or system Wistar rats; conditions: intragastric with starch 1 g/kg, 60 min; acarbose 50 mg/kg, tannins 100-500 mg/kg
# Protocol: Male healthy Wistar rats weighing 200-250 g were used in all experiments. The rats were housed, fed, and treated in accordance with the universally accepted guidelines for animal experimentation. Prior to the investigations, the animals were kept for one week under standard environmental conditions. Throughout the experimentation period, the rats were maintained in single cages and had access to standard pelleted diet and water ad libitum. Food was withdrawn 18 h before the experiments. All experiments involving rats were done in accordance with the worldwide accepted ethical guidelines for animal experimentation and previously approved by the Ethics Committee for Animal Experimentation of the University of […]á (Protocol number 067/2014-CEUA-UEM). Rats were divided into 9 groups (n = 4 rats per group). To group I (positive control) commercial corn starch (1 g per kg body weight) was given intragastrically. Group II (negative control) received only tap water. […] Fasting blood glucose levels were determined before the administration of starch and amylase inhibitors (0 time). […] Blood glucose from cut tail tips was determined using Accu-Chek® Active Glucose Meter. […] The areas were determined with the corresponding data in Figures 6(a) and 6(b) using the numerical integration procedures of the Scientist Software from MicroMath Scientific Software (Salt Lake City, UT). […]
smiles,measurement,setting,value
C[C@H]1O[C@H](O[C@H]2[C@H](O)[C@@H](O)[C@@H](O[C@H]3[C@H](O)[C@@H](O)C(O)O[C@@H]3CO)O[C@@H]2CO)[C@H](O)[C@@H](O)[C@@H]1N[C@H]1C=C(CO)[C@@H](O)[C@H](O)[C@H]1O (some centres unmarked) [acarbose],inhibitory potency compared with the tannins,[1],much better inhibitor of the pancreatic α-amylase than the tannins
same,effect on glycemic levels after starch administration,[2],diminished the increase in blood glucose concentration
